Measurements as given in ChEMBL document CHEMBL5050838 (2021).
The source made the active and inactive calls. No cut-off for these calls is given here.

What was measured:
[1] = Toxicity in human JIMT-1 cells xenografted female nude mouse assessed as effect on body weight at 25 mg/kg, po administered for every two days for 23 days; type: organism-based; details: in vivo, 552 h, time 23 day
[2] = system: JIMT-1; assay: Antitumor activity against human JIMT-1 cells xenografted female nude mouse assessed as reduction in tumor growth at 2 mg/kg, iv administered for every two days for 30 days; type: functional, organism-based; details: time 30.0 day
[3] = system: MDA-MB-157; assay: Antiproliferative activity against human MDA-MB-157 cells after 72 hrs by Cell Titer Glo assay; type: functional, cell-based; details: MDA-MB-157, 72 h
[4] = Lipophilicity, log D of compound at pH 7.4 in octanol/phosphate buffer; type: physicochemical
[5] = system: JIMT-1; assay: Antitumor activity against human JIMT-1 cells xenografted female nude mouse assessed as reduction in tumor growth at 2 mg/kg, po administered for every two days for 30 days; type: functional, organism-based; details: time 30.0 day
[6] = Half-life in human liver microsomes; type: ADME, Microsome
[7] = system: JIMT-1; assay: Antitumor activity against human JIMT-1 cells xenografted female nude mouse assessed as reduction in tumor growth at 25 mg/kg, po administered for every two days for 23 days; type: functional, organism-based; details: time 23.0 day
[8] = Plasma protein binding in human assessed as unbound fraction; type: ADME, cell-free
[9] = Plasma protein binding in human; type: ADME, cell-free
[10] = system: MDA-MB-436; assay: Antiproliferative activity against human MDA-MB-436 cells after 72 hrs by Cell Titer Glo assay; type: functional, cell-based; details: MDA-MB-436, 72 h
[11] = system: JIMT-1; assay: Induction of DNA damage in human JIMT-1 cells assessed as change in p-H2AX levels and measured by Western blot analysis; type: functional, cell-based; details: dose 100-5000 nM
[12] = system: JIMT-1; assay: Induction of mitotic arrest in human JIMT-1 cells assessed as change in p-histone H3 levels and measured by Western blot analysis; type: functional, cell-based; details: dose 100-5000 nM
[13] = system: JIMT-1; assay: Inhibition of TACC3 expressed in human JIMT-1 cells at 1 uM and measured after 6 hrs by cellular thermal shift assay relative to control; type: cell-based
[14] = system: BT-474; assay: Antiproliferative activity against T-DM1-resistant human BT-474 cells after 72 hrs by Cell Titer Glo assay; type: functional, cell-based; details: BT-474, 72 h
[15] = Apparent permeability of the compound across apical to basolateral side in human Caco-2 cells; type: ADME, cell-based
[16] = Intrinsic clearance in human liver microsomes; type: ADME, Microsome; details: read-out: CLH
[17] = Toxicity in human JIMT-1 cells xenografted female nude mouse assessed as effect on body weight at 5 mg/kg, po administered for every two days for 30 days; type: organism-based; details: in vivo, 720 h, time 30 day
[18] = system: JIMT-1; assay: Induction of apoptosis in human JIMT-1 cells assessed as change in cleaved caspase-3 levels and measured by Western blot analysis; type: functional, cell-based; details: dose 100-5000 nM
[19] = Half-life in mouse liver microsomes; type: ADME, Microsome
[20] = Toxicity in human JIMT-1 cells xenografted female nude mouse assessed as effect on body weight at 2 mg/kg, iv administered for every two days for 30 days; type: organism-based; details: in vivo, 720 h, time 30 day
[21] = system: JIMT-1; assay: Induction of apoptosis in human JIMT-1 cells assessed as change in cleaved PARP levels and measured by Western blot analysis; type: functional, cell-based; details: dose 100-5000 nM
[22] = Kinetic solubility in sodium phosphate buffer at pH 7.4 and at 25 degreeC after 2 hrs; type: physicochemical; details: read-out: Kinetic_solubility
[23] = system: JIMT-1; assay: Antitumor activity against human JIMT-1 cells xenografted female nude mouse assessed as reduction in tumor growth at 5 mg/kg, po administered for every two days for 30 days; type: functional, organism-based; details: time 30.0 day
[24] = system: JIMT-1; assay: Antitumor activity against human JIMT-1 cells xenografted female nude mouse assessed as reduction in tumor weight at 25 mg/kg, po administered for every two days for 23 days; type: functional, organism-based; details: time 23.0 day
[25] = Intrinsic clearance in mouse liver microsomes; type: ADME, Microsome; details: read-out: CLH
[26] = system: JIMT-1; assay: Anticlonogenic activity against human JIMT-1 cells assessed as reduction number of cell colonies at 100 to 1000 nM measured after 12 days by crystal violet reagent based colony formation assay; type: functional; details: dose 100-1000 nM, time 12.0 day
[27] = Toxicity in human JIMT-1 cells xenografted female nude mouse assessed as effect on body weight at 2 mg/kg, po administered for every two days for 30 days; type: organism-based; details: in vivo, 720 h, time 30 day
[28] = Apparent permeability of the compound across basolateral to apical side in human Caco-2 cells; type: ADME, cell-based
[29] = system: MCF-12A; assay: Antiproliferative activity against human MCF-12A cells after 72 hrs by Cell Titer Glo assay; type: functional, cell-based
[30] = system: JIMT-1; assay: Induction of apoptosis in human JIMT-1 cells at high concentration assessed as change in cleaved PARP levels and measured by Western blot analysis; type: functional, cell-based; details: dose 100-5000 nM
[31] = system: JIMT-1; assay: Induction of DNA damage in human JIMT-1 cells at high concentration assessed as change in p-H2AX levels and measured by Western blot analysis; type: functional, cell-based; details: dose 100-5000 nM
[32] = system: JIMT-1; assay: Antiproliferative activity against human JIMT-1 cells after 72 hrs by Cell Titer Glo assay; type: functional, cell-based; details: JIMT-1, 72 h
[33] = system: JIMT-1; assay: Induction of mitotic arrest in human JIMT-1 cells at high concentration assessed as change in p-histone H3 levels and measured by Western blot analysis; type: functional, cell-based; details: dose 100-5000 nM
[34] = system: JIMT-1; assay: Induction of apoptosis in human JIMT-1 cells at high concentration assessed as change in cleaved caspase-3 levels and measured by Western blot analysis; type: functional, cell-based; details: dose 100-5000 nM

For `COc1ccc(-c2cc(Nc3ccnc(N4CCOCC4)n3)on2)cc1`, the Activity [1] was “Non-Toxic”, the Activity [2] was “Active” and the IC50 [3] was 330 nM. For the same molecule, the logD [4] was 2.31, the Activity [5] was “Active” and the half-life [6] was 12 min. The Activity [7] was “Active”, the PPB [8] was 1.13% and the PPB [9] was 98.87%. The IC50 [10] was 146 nM, the Activity [11] was “Dose-Dependent Effect” and the Activity [12] was “Dose-Dependent Effect”. For the same molecule, the Activity [13] was “Active”, the IC50 [14] was 370 nM and the Papp A→B [15] was 19.1 ×10⁻⁶ cm/s. For the same molecule, the microsomal CLint [16] was 118 µL/min/mg, the Activity [17] was “Non-Toxic” and the Activity [18] was “Dose-Dependent Effect”. For the same molecule, the half-life [19] was 5 min, the Activity [20] was “Non-Toxic” and the Activity [21] was “Dose-Dependent Effect”. For the same molecule, the solubility kinetic at 2 h [22] was less than 1 µM, the Activity [23] was “Active” and the Activity [24] was “Active”. The microsomal CLint [25] was 329 µL/min/mg, the Activity [26] was “Dose-Dependent Effect” and the Activity [27] was “Non-Toxic”. For the same molecule, the Papp B→A [28] was 24.1 ×10⁻⁶ cm/s and the IC50 [29] was greater than 10000 nM.
With `CC(C)CNc1ccnc(NCc2csc(-c3ccccc3)n2)n1` the IC50 [3] was 1820 nM, the Activity [30] was “Active” and the IC50 [10] was 4140 nM. The IC50 [14] was 3730 nM, the Activity [31] was “Active” and the IC50 [32] was 1800 nM. The Activity [33] was “Active”, the Activity [34] was “Active” and the IC50 [29] was 3460 nM.
With `CCN(Cc1ccncc1)Cc1c(O)ccc2c(-c3cc4ccccc4oc3=O)cc(=O)oc12` the IC50 [3] was 1820 nM, the Activity [30] was “Active” and the IC50 [10] was 1300 nM. The IC50 [14] was 990 nM, the Activity [31] was “Active” and the IC50 [32] was 1150 nM. For the same molecule, the Activity [33] was “Active”, the Activity [34] was “Active” and the IC50 [29] was greater than 10000 nM.
